In patent US11566007B2, “Ras inhibitors” (Revolution Medicines, Inc., priority 2019, dated 2023):

Legend:
K-Ras G13C = K-Ras G13C (Homo sapiens (Human), UniProt P01116+P62937, G13C); assay: Ras-Raf (BRAF RBD) disruption / FRET / MOA assay, KRAS G13C; assay type: biochemical; conditions: KRAS G13C; Ras-Raf disruption/FRET/MOA assay; read-out: IC50* KRAS G13C FRET data
Summary of the method: (§1)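 Ternary complex formation (Ras–compound–cyclophilin A) displacing BRAF RBD, monitored by TR-FRET. Three hours at 25° C with compound (top 30 μM final), then 1.5 h with the labelled antibodies. Lower ratio than DMSO indicates disruption; IC50 reported.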

KRAS G13D = KRAS G13D (Homo sapiens (Human), UniProt P01116+P62937, G13D); assay: Ras-Raf (BRAF RBD) disruption / FRET / MOA assay, KRAS G13D; assay type: biochemical; conditions: read-out: IC50* KRAS G13D FRET data
Summary of the method: as §1

KRAS G12V = KRAS G12V (Homo sapiens (Human), UniProt P01116+P62937, G12V); assay: Ras-Raf (BRAF RBD) disruption / FRET / MOA assay, KRAS G12V; assay type: biochemical; conditions: read-out: IC50* KRAS G12V FRET data
Summary of the method: as §1

KRAS G12D = KRAS G12D (Homo sapiens (Human), UniProt P01116+P62937, G12D); assay: Ras-Raf (BRAF RBD) disruption / FRET / MOA assay, KRAS G12D; assay type: biochemical; conditions: Ras-Raf disruption/FRET/MOA assay; class symbols; read-out: KRAS G12D FRET data IC50
Summary of the method: as §1

[1] = tested on: NCI-H358 cells (K-Ras G12C); assay: Potency assay: pERK in NCI-H358 cells; assay type: cell-based, human; conditions: Homo sapiens, NCI-H358; H358 KRAS G12C; read-out: pERK EC50
Summary of the method: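 4 h cpd, 37 °C; 10-pt 3-fold series, 10 mM DMSO top stock, duplicates. Readout pERK: AlphaLISA SureFire Ultra or In-Cell Western (IR-800CW secondary, DRAQ5 DNA stain). IC50, 4-PL fit vs log conc.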

KRAS WT = KRAS WT (Homo sapiens (Human), UniProt P01116+P62937); assay: Ras-Raf (BRAF RBD) disruption / FRET / MOA assay, KRAS WT; assay type: biochemical; conditions: read-out: IC50* KRAS WT FRET data
Summary of the method: as §1

K-Ras G12C = K-Ras G12C (Homo sapiens (Human), UniProt P01116+P62937, G12C); assay: Ras-Raf (BRAF RBD) disruption / FRET / MOA assay, KRAS G12C; assay type: biochemical; conditions: KRAS G12C; Ras-Raf disruption/FRET/MOA assay; read-out: IC50* KRAS G12C FRET data
Summary of the method: as §1

NCI-H358 (K-Ras G12C) = assay: CellTiter-Glo cell viability assay, NCI-H358; assay type: cell-based, human; conditions: Homo sapiens, NCI-H358, 120 h, NCI-H358, 5-day treatment; class symbols; read-out: Additional H358 Cell Viability assay data (K-Ras G12C, IC50)
Summary of the method: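 Viability of K-Ras mutant lines is measured by ATP luminescence after five days of compound treatment. Percent of DMSO control is calculated and dose-response data are fitted with a four-parameter logistic equation.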

KRAS G12S = KRAS G12S (Homo sapiens (Human), UniProt P01116+P62937, G12S); assay: Ras-Raf (BRAF RBD) disruption / FRET / MOA assay, KRAS G12S; assay type: biochemical; conditions: Ras-Raf disruption/FRET/MOA assay; class symbols; read-out: KRAS G12S FRET data IC50
Summary of the method: as §1

NRAS G12C = NRAS G12C (Homo sapiens (Human), UniProt P01111+P62937, G12C); assay: Ras-Raf (BRAF RBD) disruption / FRET / MOA assay, NRAS G12C; assay type: biochemical; conditions: read-out: IC50* NRAS G12C FRET data
Summary of the method: as §1

K-Ras G12C, sequence (P01116-2 other isoform, or with tags, fused parts or gaps G12C): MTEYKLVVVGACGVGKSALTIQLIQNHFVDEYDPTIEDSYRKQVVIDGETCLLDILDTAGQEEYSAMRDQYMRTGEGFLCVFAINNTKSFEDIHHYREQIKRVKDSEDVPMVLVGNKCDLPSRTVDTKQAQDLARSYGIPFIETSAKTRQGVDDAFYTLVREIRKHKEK
K-Ras G12C, sequence (P62937 whole entry): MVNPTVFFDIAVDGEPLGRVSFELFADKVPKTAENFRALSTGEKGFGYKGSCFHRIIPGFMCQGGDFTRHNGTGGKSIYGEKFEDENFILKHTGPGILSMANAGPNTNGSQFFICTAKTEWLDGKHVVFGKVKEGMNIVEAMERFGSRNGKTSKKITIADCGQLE
KRAS WT, sequence (P01116-2 other isoform, or with tags, fused parts or gaps): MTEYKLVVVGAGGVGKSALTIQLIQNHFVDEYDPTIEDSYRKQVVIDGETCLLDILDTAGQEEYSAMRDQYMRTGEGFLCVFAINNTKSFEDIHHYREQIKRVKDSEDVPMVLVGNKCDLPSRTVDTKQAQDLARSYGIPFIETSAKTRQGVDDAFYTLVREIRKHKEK
KRAS WT, sequence (P62937 whole entry): as the sequence (P62937 whole entry) above
KRAS G12D, sequence (P01116-2 other isoform, or with tags, fused parts or gaps G12D): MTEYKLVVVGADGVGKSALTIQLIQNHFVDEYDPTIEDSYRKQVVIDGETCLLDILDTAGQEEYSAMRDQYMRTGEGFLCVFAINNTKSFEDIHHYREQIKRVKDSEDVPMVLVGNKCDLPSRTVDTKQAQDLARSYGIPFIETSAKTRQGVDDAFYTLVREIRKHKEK
KRAS G12D, sequence (P62937 whole entry): as the sequence (P62937 whole entry) above
K-Ras G13C, sequence (P01116-2 other isoform, or with tags, fused parts or gaps G13C): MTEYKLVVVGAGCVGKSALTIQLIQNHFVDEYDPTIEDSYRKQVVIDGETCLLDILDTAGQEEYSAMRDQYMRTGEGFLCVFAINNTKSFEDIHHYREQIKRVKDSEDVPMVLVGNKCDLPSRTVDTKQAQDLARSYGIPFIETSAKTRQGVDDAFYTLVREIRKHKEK
K-Ras G13C, sequence (P62937 whole entry): as the sequence (P62937 whole entry) above
NRAS G12C, sequence (P01111 whole entry G12C): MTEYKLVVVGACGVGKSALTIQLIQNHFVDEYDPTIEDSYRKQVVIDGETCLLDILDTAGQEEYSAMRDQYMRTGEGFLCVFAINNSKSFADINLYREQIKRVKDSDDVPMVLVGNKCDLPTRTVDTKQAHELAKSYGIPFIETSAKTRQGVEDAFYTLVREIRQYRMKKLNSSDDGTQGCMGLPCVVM
NRAS G12C, sequence (P62937 whole entry): as the sequence (P62937 whole entry) above
KRAS G12S, sequence (P01116-2 other isoform, or with tags, fused parts or gaps G12S): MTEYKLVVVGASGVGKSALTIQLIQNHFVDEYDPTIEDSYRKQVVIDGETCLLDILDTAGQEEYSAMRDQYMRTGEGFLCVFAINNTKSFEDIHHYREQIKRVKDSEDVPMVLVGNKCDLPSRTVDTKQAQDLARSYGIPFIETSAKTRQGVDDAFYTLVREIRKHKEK
KRAS G12S, sequence (P62937 whole entry): as the sequence (P62937 whole entry) above
KRAS G12V, sequence (P01116-2 other isoform, or with tags, fused parts or gaps G12V): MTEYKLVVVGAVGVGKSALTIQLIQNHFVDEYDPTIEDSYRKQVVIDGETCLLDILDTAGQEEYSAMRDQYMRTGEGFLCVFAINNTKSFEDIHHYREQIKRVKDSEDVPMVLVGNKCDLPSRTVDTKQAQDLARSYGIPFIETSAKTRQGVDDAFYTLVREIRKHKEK
KRAS G12V, sequence (P62937 whole entry): as the sequence (P62937 whole entry) above
KRAS G13D, sequence (P01116-2 other isoform, or with tags, fused parts or gaps G13D): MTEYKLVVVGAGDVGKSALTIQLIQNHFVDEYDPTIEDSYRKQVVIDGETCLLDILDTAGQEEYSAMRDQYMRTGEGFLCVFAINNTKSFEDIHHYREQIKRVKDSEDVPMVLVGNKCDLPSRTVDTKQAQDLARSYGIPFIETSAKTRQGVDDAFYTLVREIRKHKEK
KRAS G13D, sequence (P62937 whole entry): as the sequence (P62937 whole entry) above

Row | SMILES | IC50 (K-Ras G13C) [nM] | IC50 (KRAS G13D) [nM] | IC50 (KRAS G12V) [nM] | IC50 (KRAS G12D) [nM] | EC50 [1] [nM] | IC50 (KRAS WT) [nM] | IC50 (K-Ras G12C) [nM] | IC50 (NCI-H358 (K-Ras G12C)) [nM] | IC50 (KRAS G12S) [nM] | IC50 (NRAS G12C) [nM]
1 | CCn1c(-c2cncnc2)c2c3cc(ccc31)-c1csc(n1)C[C@H](NC(=O)[C@H](C(C)C)N(C)C(=O)[C@H]1CCN(C(=O)C#CCN3CCOCC3)C1)C(=O)N1CCC[C@H](N1)C(=O)OCC(C)(C)C2 [Example A177] | > 10000 | > 10000 | > 10000 | > 10000 | < 5000 | > 10000 | 100 to 1000 | 100 to 1000 | > 10000 | 100 to 1000
2 | C/C=C(\C#N)C(=O)N1CC[C@H](C(=O)N(C)[C@H](C(=O)N[C@H]2Cc3cc(O)cc(c3)-c3ccc4c(c3)c(c(-c3cccnc3COC)n4CC)CC(C)(C)COC(=O)[C@@H]3CCCN(N3)C2=O)C(C)C)C1 [Example A178] | 10 to 100 | 1000 to 10000 | 100 to 1000 | 1000 to 10000 | < 5000 | 1000 to 10000 | 10 to 100 | > 1000 | 100 to 1000 | 10 to 100
3 | C=CC(=O)N1CC[C@@H](C(=O)N(C)[C@H](C(=O)N[C@H]2Cc3cc(O)cc(c3)-c3ccc4c(c3)c(c(-c3cncnc3)n4CC)CC(C)(C)COC(=O)[C@@H]3CCCN(N3)C2=O)C(C)C)O1 [Example A179] | 100 to 1000 | 1000 to 10000 | 1000 to 10000 | 1000 to 10000 | < 5000 | 1000 to 10000 | 10 to 100 | > 1000 | 1000 to 10000 | 10 to 100
4 | C=CC(=O)N1CC[C@H](C(=O)N(C)[C@H](C(=O)N[C@H]2Cc3cc(O)cc(c3)-c3ccc4c(c3)c(c(-c3cncnc3)n4CC)CC(C)(C)COC(=O)[C@@H]3CCCN(N3)C2=O)C(C)C)O1 [Example A180] | 100 to 1000 | 1000 to 10000 | 100 to 1000 | 1000 to 10000 | < 5000 | 100 to 1000 | 100 to 1000 | > 1000 | 1000 to 10000 | 100 to 1000
5 | CCn1c(-c2cncnc2)c2c3cc(ccc31)-c1cccc(c1)C[C@H](NC(=O)[C@H](C(C)C)N(C)C(=O)[C@H]1CCN(C(=O)C#CCN3CCOCC3)C1)C(=O)N1CCC[C@H](N1)C(=O)OCC(C)(C)C2 [Example A185] | > 10000 | > 10000 | > 10000 | > 10000 | < 5000 | > 10000 | 100 to 1000 | 100 to 1000 | > 10000 | 100 to 1000
6 | CCn1c(-c2cccnc2COC)c2c3cc(ccc31)-c1cc(O)cc(c1)C[C@H](NC(=O)[C@H](C(C)C)N(C)C(=O)[C@H]1CCN(C(=O)C#CCN3CCN(C)CC3)C1)C(=O)N1CCC[C@H](N1)C(=O)OCC(C)(C)C2 [Example A189] | 100 to 1000 | 100 to 1000 | 100 to 1000 | 100 to 1000 | < 5000 | 100 to 1000 | 10 to 100 | > 1000 | 100 to 1000 | 10 to 100
7 | CCn1c(-c2cccnc2)c2c3cc(ccc31)-c1csc(n1)C[C@H](NC(=O)[C@H](C(C)C)N(C)C(=O)[C@H]1CCN(C(=O)C#CCN3CCOCC3)C1)C(=O)N1CCC[C@H](N1)C(=O)OCC(C)(C)C2 [Example A190] | > 10000 | > 10000 | > 10000 | > 10000 | < 5000 | > 10000 | 100 to 1000 | 100 to 1000 | > 10000 | 100 to 1000
8 | CCn1c(-c2cccnc2)c2c3cc(ccc31)-c1cccc(c1)C[C@H](NC(=O)[C@H](C(C)C)N(C)C(=O)[C@H]1CCN(C(=O)C#CCN3CCOCC3)C1)C(=O)N1CCC[C@H](N1)C(=O)OCC(C)(C)C2 [Example A195] | > 10000 | > 10000 | > 10000 | > 10000 | < 5000 | > 10000 | 100 to 1000 | 100 to 1000 | > 10000 | 100 to 1000
